Source: publication PMC5896266, “Development of Matrix Metalloproteinase-2 Inhibitors for Cardioprotection” (Frontiers in Pharmacology, 2018)

What was measured:
MMP-13 = MMP-13 (Homo sapiens, UniProt P45452); assay: MMP-13 inhibition (inhibitory profile); type: biochemical; conditions: Table 2
Procedure: The compounds were measured for MMP-1, 2, 9, 13 to determine their inhibitory profile. Efficiency Index amplifies the two major required effects, selectivity against MMP-1 and the inhibitory activity.

[1] = target: T1, MMP-2 enzyme isolated from rat heart (Rattus norvegicus, UniProt P33436); assay: Gelatin zymography on cardiac MMP-2; type: biochemical
T1 construct: we used full-length, active MMP-2 enzymes isolated from healthy young adult rat hearts; from tissue; host or cells: rat heart homogenate (healthy young adult rats)
T1 sequence (P33436 110-662): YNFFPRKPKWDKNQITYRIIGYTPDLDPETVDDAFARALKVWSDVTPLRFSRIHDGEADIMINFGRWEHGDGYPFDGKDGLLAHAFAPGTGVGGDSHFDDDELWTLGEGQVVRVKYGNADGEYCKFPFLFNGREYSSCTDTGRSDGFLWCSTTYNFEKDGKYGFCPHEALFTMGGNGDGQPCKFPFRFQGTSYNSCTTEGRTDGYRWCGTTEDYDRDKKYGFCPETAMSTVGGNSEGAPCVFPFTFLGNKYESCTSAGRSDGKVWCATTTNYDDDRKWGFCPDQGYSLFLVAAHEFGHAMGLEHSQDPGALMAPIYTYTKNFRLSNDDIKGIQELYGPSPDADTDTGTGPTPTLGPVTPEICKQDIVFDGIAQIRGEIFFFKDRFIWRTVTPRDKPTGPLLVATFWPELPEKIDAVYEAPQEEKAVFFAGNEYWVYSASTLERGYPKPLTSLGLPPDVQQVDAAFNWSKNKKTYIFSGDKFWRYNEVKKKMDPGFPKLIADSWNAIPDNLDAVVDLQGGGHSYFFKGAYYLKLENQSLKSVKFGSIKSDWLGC
Procedure: Gelatin zymography was performed as described previously (Kupai et al., [2010]; Bencsik et al., [2017]). MMP-2 was isolated from rat heart homogenates as follows: 50 μg protein/lane were loaded and separated by electrophoresis under non-reducing conditions on an 8% SDS-polyacrylamide gels copolymerized with 2 mg/ml gelatin from porcine skin (Sigma-Aldrich; St. Louis, MO). After electrophoresis, gels were washed in 2.5% Triton-X 100 with gentle agitation and then incubated for 20 h at 37°C in zymography development buffer (50 mM Tris-HCl, pH 7.5, containing 5 mM CaCl2, 200 mM NaCl) in the presence or abscence of the MMP inhibitor compounds. Zymographic gels were stained in a 0.05% Coomassie Brilliant Blue R-250 solution followed by destaining, and then zymograms were scanned. MMP activity was detected as a colorless transparent zone on a blue background and the clear bands in the gel were quantified by densitometry using the Quantity One software (Bio-Rad, Hercules, CA). The obtained density values were measured and percentage of inhibition values were then calculated.
To confirm the MTS screen results, we tested the potential MMP inhibitor molecules on MMP-2 enzyme isolated from rat heart in vitro. Therefore, we applied the MMPIs at 1 and 100 μM final concentration in the enzyme's development buffer (Table 3).
After the chemical optimization of the novel MMP inhibitor lead candidates, we determined their IC50 values by using gelatin zymography. During zymographic analysis, we used full-length, active MMP-2 enzymes isolated from healthy young adult rat hearts. Subsequently, the cardio-cytoprotective effects of the selected candidates having the lowest IC50 values to MMP-2 were tested in cultured neonatal cardiac myocytes subjected to simulated I/R injury. Cardiac myocyte cell culture assay allowed a relatively high throughput biological efficacy testing (Gorbe et al., [2010]) of the selected lead candidates in several dose ranges at different levels of inhibition of MMP-2 activity.

[2] = test system: neonatal rat cardiac myocytes; assay: Cell viability of neonatal rat cardiac myocytes subjected to simulated ischemia/reperfusion; type: cell-based; conditions: comparison among the tested lead candidates
Procedure: For our cell viability experiments, 3 day-old cardiomyocytes plated onto 24-well plates were tested under normoxic condition or subjected to simulated ischemia (SI). The normoxic cardiomyocytes were kept under normoxic conditions, i.e., the growth medium was changed to a normoxic solution (in mM: NaCl 125, KCl 5.4, NaH2PO4 1.2, MgCl2 0.5, HEPES 20, glucose 15, taurine 5, CaCl2 1, creatine 2.5, BSA 0.1%, pH 7.4, 310 mOsm/l) (Li et al., [2004]) and the cells were incubated under 95% air and 5% CO2 at 37°C for 2.5 h. […] The cells were then subjected to the following treatments during SI or normoxic protocol: vehicle control or MMP inhibitors at different doses calculated according to IC doses in vitro. […]
Figure 3 Experimental protocol for cell culture studies and for the ex vivo rat heart model of AMI. […] At the end of the reperfusion, cell viability was determined by using calcein flurescence. […] Subsequently, 2 h reperfusion was applied and then infarct size was determined. […]
Cell viability was assessed by a calcein and propidium iodine assay performed in each group after 2 h reoxygenation. […] Then the calcein solution was replaced with fresh PBS and the fluorescence intensity of each well was detected by a fluorescent plate reader (FluoStar Optima, BMG Labtech, Ortenberg, Germany). […]

## O=C(O)c1c[nH]c(CN(Cc2ccc(F)cc2)Cc2ccc(OCc3ccccc3)cc2)n1 [MMPI-1154]
MMP-13
  IC50: 1.8 µM
[1]; 100 μM, cardiac MMP-2, gelatin zymography, read-out: Inhibition (%)±SEM at 100 μM final MMP inhibitor concentration
  inhibition at 100 µM: 100%
[1]; concentration labelled EC50 in Supplementary Figure 4, doses calculated according to IC doses in vitro
  EC50: 2.5 µM
[1]; concentration used in the ex vivo model, read-out: IC20 value (MMP-2 inhibition)
  IC20: 1 µM
[1]; most effective concentration in cell culture experiments, read-out: IC50 value (MMP-2 inhibition)
  IC50: 2.5 µM
[2]
  increase in cell viability during simulated I/R: highest increase in cell viability
